{"source": "patent US20100209542A1", "about": "“Methods For Treating Withdrawal From Addictive Compounds” (priority 2008, published 2010)", "key": {"mice": {"test_system": "mice", "conditions": "cited from earlier work"}, "opioid receptors": {"test_system": "opioid receptors", "conditions": "guinea pig ileum, compared with morphine; cited from earlier work"}, "withdrawal symptoms": {"test_system": "withdrawal symptoms", "assay": "compound followed by naloxone administration (control values)", "assay_type": "in vivo, mice", "experimental": "(§1) In this experiment mice were chronically administered either morphine using an increasing dose paradigm starting at 20 mg/kg and ending at 100 mg/kg (i.p.) or a saline vehicle control for six days. […] Morphine withdrawal symptoms were initiated by the injection of naloxone (10 mg/kg; i.p.). Kratom extract and mitragyine reduced naloxone-precipitated morphine withdrawal symptoms in a similar manner as methadone."}, "[1]": {"test_system": "morphine withdrawal symptoms", "assay": "naloxone-precipitated morphine withdrawal symptoms after replacement with compound", "assay_type": "in vivo, mice", "conditions": "for Jumping Frequency / Last Day % Weight Control / Locomotor Activity / Paw Tremor Frequency / Teeth Chattering Frequency / Wet Dog Shakes Frequency: + 10 mg/kg naloxone i.p.", "experimental": "as §1"}, "Dopamine D2": {"molecular_target": "T1, Dopamine D2 (Homo sapiens, UniProt P14416)", "T1 construct": "Novascreen Biosciences Corp", "T1 sequence (P14416 whole entry)": "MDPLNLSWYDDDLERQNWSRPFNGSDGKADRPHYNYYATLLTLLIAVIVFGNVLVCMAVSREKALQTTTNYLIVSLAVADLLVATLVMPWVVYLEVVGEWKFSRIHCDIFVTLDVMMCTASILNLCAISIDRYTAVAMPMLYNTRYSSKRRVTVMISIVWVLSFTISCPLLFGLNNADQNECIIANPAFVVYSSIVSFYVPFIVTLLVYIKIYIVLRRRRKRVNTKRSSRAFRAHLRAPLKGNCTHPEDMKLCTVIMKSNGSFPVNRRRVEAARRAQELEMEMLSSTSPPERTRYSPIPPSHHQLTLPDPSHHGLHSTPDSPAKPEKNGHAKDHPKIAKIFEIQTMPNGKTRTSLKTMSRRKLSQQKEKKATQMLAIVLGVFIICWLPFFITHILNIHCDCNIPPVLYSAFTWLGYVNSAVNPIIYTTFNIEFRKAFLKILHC", "assay": "high throughput radioligand binding screen, Dopamine D2"}, "respiratory depression": {"test_system": "respiratory depression", "conditions": "rat, even at doses of 800 mg/kg, intraperitoneal; cited from earlier work"}, "Serotonin, 5HT7": {"molecular_target": "T2, Serotonin, 5HT7 (Homo sapiens, UniProt P34969)", "T2 construct": "Novascreen Biosciences Corp", "T2 sequence (P34969 whole entry)": "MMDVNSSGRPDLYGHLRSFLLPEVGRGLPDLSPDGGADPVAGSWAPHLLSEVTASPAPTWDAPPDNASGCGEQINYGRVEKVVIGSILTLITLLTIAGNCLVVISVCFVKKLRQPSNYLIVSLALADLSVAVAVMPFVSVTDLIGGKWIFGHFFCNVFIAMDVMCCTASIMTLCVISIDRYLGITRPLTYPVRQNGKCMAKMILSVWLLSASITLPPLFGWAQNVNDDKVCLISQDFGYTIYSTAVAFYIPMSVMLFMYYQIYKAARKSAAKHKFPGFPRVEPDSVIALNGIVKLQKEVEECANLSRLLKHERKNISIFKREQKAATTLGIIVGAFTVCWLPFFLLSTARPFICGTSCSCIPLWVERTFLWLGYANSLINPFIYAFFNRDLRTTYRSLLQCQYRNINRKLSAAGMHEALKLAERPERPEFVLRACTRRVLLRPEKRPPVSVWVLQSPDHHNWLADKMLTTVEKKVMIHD", "assay": "high throughput radioligand binding screen, Serotonin 5HT7"}, "Adenosine A2A": {"molecular_target": "T3, Adenosine A2A (Homo sapiens, UniProt P29274)", "T3 construct": "Novascreen Biosciences Corp", "T3 sequence (P29274 whole entry)": "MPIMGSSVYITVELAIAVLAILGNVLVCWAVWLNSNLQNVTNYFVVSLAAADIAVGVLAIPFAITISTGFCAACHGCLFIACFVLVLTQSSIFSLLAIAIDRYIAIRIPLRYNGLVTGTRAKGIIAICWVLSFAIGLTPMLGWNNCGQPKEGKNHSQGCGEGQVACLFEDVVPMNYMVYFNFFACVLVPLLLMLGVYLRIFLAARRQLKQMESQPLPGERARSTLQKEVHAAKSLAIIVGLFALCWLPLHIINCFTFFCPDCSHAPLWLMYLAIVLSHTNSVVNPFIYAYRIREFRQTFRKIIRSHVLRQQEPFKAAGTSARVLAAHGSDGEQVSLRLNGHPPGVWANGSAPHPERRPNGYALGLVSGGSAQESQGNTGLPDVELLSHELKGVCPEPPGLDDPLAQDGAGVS", "assay": "high throughput radioligand binding screen, Adenosine A2A"}, "[2]": {"conditions": "animal studies; cited from earlier work"}, "Serotonin, 5HT2C": {"molecular_target": "T4, Serotonin, 5HT2C (Homo sapiens, UniProt P28335)", "T4 construct": "Novascreen Biosciences Corp", "T4 sequence (P28335 33-458)": "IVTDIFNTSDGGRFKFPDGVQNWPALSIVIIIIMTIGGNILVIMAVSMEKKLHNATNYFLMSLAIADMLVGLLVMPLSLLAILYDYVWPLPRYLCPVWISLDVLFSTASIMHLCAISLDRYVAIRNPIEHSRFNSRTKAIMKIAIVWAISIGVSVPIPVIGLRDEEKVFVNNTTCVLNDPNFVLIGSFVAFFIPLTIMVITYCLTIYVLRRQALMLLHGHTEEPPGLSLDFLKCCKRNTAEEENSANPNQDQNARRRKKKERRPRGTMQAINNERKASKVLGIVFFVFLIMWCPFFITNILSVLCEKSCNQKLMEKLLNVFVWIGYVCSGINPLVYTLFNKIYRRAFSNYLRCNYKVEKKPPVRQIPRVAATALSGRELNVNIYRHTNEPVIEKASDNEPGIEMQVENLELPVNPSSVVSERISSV", "assay": "high throughput radioligand binding screen, Serotonin 5HT2C"}, "Adrenergic (Alpha 2)": {"test_system": "Adrenergic (Alpha 2)", "assay": "high throughput radioligand binding screen, Adrenergic (Alpha 2)"}, "[3]": {"assay": "mitragynine sample stability in validation of the detection method", "conditions": "short-term (4 h at room temperature), freeze-thaw (3 cycles), post-processing (16 h at 12° C.); any concentration tested", "from_the_text": "The coefficient of variation and relative error values at the three concentrations were obtained in the intra- and inter-day assays. See, FIG. 3."}, "delta-opioid receptor": {"molecular_target": "T5, delta-opioid receptor (Cavia porcellus, UniProt A0A286XTF2)", "T5 construct": "determined using guinea pig brain membranes; from tissue; host or cells: guinea pig brain membranes", "T5 sequence (A0A286XTF2 1-366)": "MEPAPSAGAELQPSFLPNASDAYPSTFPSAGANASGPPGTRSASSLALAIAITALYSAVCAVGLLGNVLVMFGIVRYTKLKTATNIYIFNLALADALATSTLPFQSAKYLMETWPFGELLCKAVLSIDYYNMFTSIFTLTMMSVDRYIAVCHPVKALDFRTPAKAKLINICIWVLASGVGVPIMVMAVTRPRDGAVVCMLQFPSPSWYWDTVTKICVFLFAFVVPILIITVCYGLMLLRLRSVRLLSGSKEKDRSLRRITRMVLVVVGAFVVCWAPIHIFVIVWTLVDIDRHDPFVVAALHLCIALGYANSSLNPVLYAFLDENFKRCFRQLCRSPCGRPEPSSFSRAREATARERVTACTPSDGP", "conditions": "guinea pig brain membranes; cited from earlier work"}, "[4]": {"conditions": "no morphine, compound 23 mg/kg p.o. + 10 mg/kg naloxone i.p."}, "[5]": {"conditions": "no morphine, compound 100 mg/kg p.o. + 10 mg/kg naloxone i.p."}, "[6]": {"conditions": "morphine 20-100 mg/kg i.p., then compound 23 mg/kg p.o."}, "[7]": {"conditions": "morphine 20-100 mg/kg i.p., then compound 100 mg/kg p.o."}, "[8]": {"conditions": "morphine i.p. + 10 mg/kg naloxone i.p."}, "[9]": {"conditions": "morphine 20-100 mg/kg i.p. control, no replacement compound"}, "[10]": {"conditions": "naloxone i.p. group, no morphine"}}, "data": [{"smiles": "CC[C@@H]1CN2CC[C@@]3(O)C(=Nc4cccc(OC)c43)[C@@H]2C[C@@H]1/C(=C\\OC)C(=O)OC", "note": "[7-hydroxymitragynine]", "values": [{"measurement": "antinociceptive activity", "setting": "mice", "result": "potent antinociceptive activity"}, {"measurement": "opioid agonist potency", "setting": "opioid receptors", "result": "higher potency than morphine"}]}, {"smiles": "CCC(=O)C(CC(C)N(C)C)(c1ccccc1)c1ccccc1", "note": "(centres unmarked) [Methadone, methadone]", "values": [{"measurement": "Jumping Frequency", "setting": "withdrawal symptoms; [4]", "result": "0.00 ± 0.00"}, {"measurement": "Last Day % Weight Control", "setting": "withdrawal symptoms; [4]", "result": "96.64 ± 1.046", "unit": "%"}, {"measurement": "Locomotor Activity", "setting": "withdrawal symptoms; [4]", "result": "2595 ± 288.4"}, {"measurement": "Paw Tremor Frequency", "setting": "withdrawal symptoms; [4]", "result": "6.400 ± 1.462"}, {"measurement": "Teeth Chattering Frequency", "setting": "withdrawal symptoms; [4]", "result": "0.00 ± 0.00"}, {"measurement": "Wet Dog Shakes Frequency", "setting": "withdrawal symptoms; [4]", "result": "2.000 ± 0.5164"}, {"measurement": "Jumping Frequency", "setting": "withdrawal symptoms; [5]", "result": "0.00 ± 0.00"}, {"measurement": "Last Day % Weight Control", "setting": "withdrawal symptoms; [5]", "result": "98.30 ± 0.6976", "unit": "%"}, {"measurement": "Paw Tremor Frequency", "setting": "withdrawal symptoms; [5]", "result": "5.000 ± 1.549"}, {"measurement": "Teeth Chattering Frequency", "setting": "withdrawal symptoms; [5]", "result": "0.00 ± 0.00"}, {"measurement": "Wet Dog Shakes Frequency", "setting": "withdrawal symptoms; [5]", "result": "1.900 ± 0.5859"}, {"measurement": "Jumping Frequency", "setting": "[1]; [6]", "result": "0.00 ± 0.00"}, {"measurement": "Last Day % Weight Control", "setting": "[1]; [6]", "result": "100.1 ± 0.8121", "unit": "%"}, {"measurement": "Locomotor Activity", "setting": "[1]; [6]", "result": "1866 ± 225.9"}, {"measurement": "Paw Tremor Frequency", "setting": "[1]; [6]", "result": "110.7 ± 8.809"}, {"measurement": "Teeth Chattering Frequency", "setting": "[1]; [6]", "result": "81.20 ± 8.704"}, {"measurement": "Wet Dog Shakes Frequency", "setting": "[1]; [6]", "result": "5.600 ± 0.9684"}, {"measurement": "Jumping Frequency", "setting": "[1]; [7]", "result": "1.111 ± 0.7536"}, {"measurement": "Last Day % Weight Control", "setting": "[1]; [7]", "result": "100.1 ± 1.205", "unit": "%"}, {"measurement": "Locomotor Activity", "setting": "[1]; [7]", "result": "2512 ± 131.5"}, {"measurement": "Paw Tremor Frequency", "setting": "[1]; [7]", "result": "8.444 ± 1.692"}, {"measurement": "Teeth Chattering Frequency", "setting": "[1]; [7]", "result": "0.00 ± 0.00"}, {"measurement": "Wet Dog Shakes Frequency", "setting": "[1]; [7]", "result": "0.6667 ± 0.3333"}]}, {"smiles": "CN1CC[C@]23c4c5ccc(O)c4O[C@H]2[C@@H](O)C=C[C@H]3[C@H]1C5", "note": "[Morphine, morphine]", "values": [{"measurement": "Jumping Frequency", "setting": "withdrawal symptoms; [8]", "result": "21.6 ± 4.378"}, {"measurement": "Last Day % Weight Control", "setting": "withdrawal symptoms; [8]", "result": "89.64 ± 0.6012", "unit": "%"}, {"measurement": "Locomotor Activity", "setting": "withdrawal symptoms; [8]", "result": "1870 ± 114.2"}, {"measurement": "Paw Tremor Frequency", "setting": "withdrawal symptoms; [8]", "result": "156.2 ± 7.124"}, {"measurement": "Teeth Chattering Frequency", "setting": "withdrawal symptoms; [8]", "result": "76.10 ± 6.572"}, {"measurement": "Wet Dog Shakes Frequency", "setting": "withdrawal symptoms; [8]", "result": "9.433 ± 1.334"}, {"measurement": "Jumping Frequency", "setting": "[1]; [9]", "result": "21.6 ± 4.378"}, {"measurement": "Last Day % Weight Control", "setting": "[1]; [9]", "result": "89.64 ± 0.6012", "unit": "%"}, {"measurement": "Locomotor Activity", "setting": "[1]; [9]", "result": "1870 ± 114.2"}, {"measurement": "Paw Tremor Frequency", "setting": "[1]; [9]", "result": "156.2 ± 7.124"}, {"measurement": "Teeth Chattering Frequency", "setting": "[1]; [9]", "result": "76.10 ± 6.572"}, {"measurement": "Wet Dog Shakes Frequency", "setting": "[1]; [9]", "result": "9.433 ± 1.334"}]}, {"smiles": "C=CCN1CC[C@]23c4c5ccc(O)c4O[C@H]2C(=O)CC[C@@]3(O)[C@H]1C5", "note": "[Naloxone, naloxone]", "values": [{"measurement": "Jumping Frequency", "setting": "withdrawal symptoms; [10]", "result": "1.800 ± 0.9978"}, {"measurement": "Last Day % Weight Control", "setting": "withdrawal symptoms; [10]", "result": "99.94 ± 1.225", "unit": "%"}, {"measurement": "Locomotor Activity", "setting": "withdrawal symptoms; [10]", "result": "3291 ± 145.3"}, {"measurement": "Paw Tremor Frequency", "setting": "withdrawal symptoms; [10]", "result": "3.800 ± 0.9978"}, {"measurement": "Teeth Chattering Frequency", "setting": "withdrawal symptoms; [10]", "result": "0.00 ± 0.00"}, {"measurement": "Wet Dog Shakes Frequency", "setting": "withdrawal symptoms; [10]", "result": "0.6000 ± 0.3399"}]}, {"smiles": "CC[C@@H]1CN2CC[C@]3(Nc4cccc(OC)c4C3=O)[C@@H]2C[C@@H]1/C(=C\\OC)C(=O)OC", "note": "[mitragynine pseudoindoxyl]", "values": [{"measurement": "opioid agonist potency", "setting": "opioid receptors", "result": "higher potency than morphine"}]}, {"smiles": "CC[C@@H]1CN2CCc3c([nH]c4cccc(OC)c34)[C@@H]2C[C@@H]1/C(=C\\OC)C(=O)OC", "note": "[mitragynine]", "values": [{"measurement": "Jumping Frequency", "setting": "withdrawal symptoms; [4]", "result": "0.00 ± 0.00"}, {"measurement": "Last Day % Weight Control", "setting": "withdrawal symptoms; [4]", "result": "98.85 ± 0.8938", "unit": "%"}, {"measurement": "Locomotor Activity", "setting": "withdrawal symptoms; [4]", "result": "3010 ± 108.1"}, {"measurement": "Paw Tremor Frequency", "setting": "withdrawal symptoms; [4]", "result": "1.800 ± 0.6464"}, {"measurement": "Teeth Chattering Frequency", "setting": "withdrawal symptoms; [4]", "result": "0.00 ± 0.00"}, {"measurement": "Wet Dog Shakes Frequency", "setting": "withdrawal symptoms; [4]", "result": "0.00 ± 0.00"}, {"measurement": "Percentage inhibition of radioligand binding", "setting": "Dopamine D2", "result": "Dopamine D2: 54.22"}, {"measurement": "respiratory depression", "setting": "respiratory depression", "result": "failed to identify respiratory depression"}, {"measurement": "Percentage inhibition of radioligand binding", "setting": "Serotonin, 5HT7", "result": "Serotonin, 5HT7: 64.41"}, {"measurement": "Percentage inhibition of radioligand binding", "setting": "Adenosine A2A", "result": "Adenosine A2A: 65.66"}, {"measurement": "naloxone-precipitated morphine withdrawal symptoms", "setting": "[1]; mice, p.o. for six days after morphine, in a similar manner as methadone", "result": "reduced"}, {"measurement": "Jumping Frequency", "setting": "[1]; [6]", "result": "0.00 ± 0.00"}, {"measurement": "Last Day % Weight Control", "setting": "[1]; [6]", "result": "101.3 ± 0.8619", "unit": "%"}, {"measurement": "Locomotor Activity", "setting": "[1]; [6]", "result": "2485 ± 119.1"}, {"measurement": "Paw Tremor Frequency", "setting": "[1]; [6]", "result": "3.200 ± 0.7424"}, {"measurement": "Teeth Chattering Frequency", "setting": "[1]; [6]", "result": "0.00 ± 0.00"}, {"measurement": "Wet Dog Shakes Frequency", "setting": "[1]; [6]", "result": "0.6000 ± 0.2667"}, {"measurement": "analgesic and antitussive properties", "setting": "[2]", "result": "comparable to codeine"}, {"measurement": "opioid withdrawal syndrome", "setting": "[2]", "result": "suppressed"}, {"measurement": "respiratory depression compared with codeine", "setting": "[2]", "result": "much less respiratory depression"}, {"measurement": "Percentage inhibition of radioligand binding", "setting": "Serotonin, 5HT2C", "result": "Serotonin, 5HT2C: 58.77"}, {"measurement": "Percentage inhibition of radioligand binding", "setting": "Adrenergic (Alpha 2)", "result": "Adrenergic (Alpha 2): 61.92"}, {"measurement": "sample stability, variation", "setting": "[3]", "result": "≤ 15", "unit": "%"}, {"measurement": "pKi", "setting": "delta-opioid receptor", "result": "7.22±0.21"}]}]}
